The data set can be described thus: in vitro. As to conditions: human, hela cells, % viability.

The values that follow come from paper PMC12040169 (PLOS Biology, 2025).

For the compound `CC(=O)Nc1ccc([C@@H](O)[C@H]2COCC(=O)N2Cc2ccc(C(F)(F)F)cc2)cc1` [CBK289678], the viability at 28.5 h, 10 µM was 92.7%.

As to `O=C(c1ccno1)N1C[C@@H]2OCC(=O)N(CC3CC3)[C@@H]2C1` [CBK289680], the viability at 28.5 h, 10 µM was 83.5%.

As to `O=C(c1cnccn1)N1C[C@@H]2OCC(=O)N(CC3CC3)[C@@H]2C1` [CBK289681], the viability at 28.5 h, 10 µM came to 91.3%.

As to `O=C(Nc1ccccc1)N1C[C@@H]2OCC(=O)N(Cc3ccc(F)cc3)[C@@H]2C1` [CBK289683], the viability at 28.5 h, 10 µM was determined as 82%. Consider `CCC(CC)C(=O)Nc1ccc([C@@H](O)[C@H]2COCC(=O)N2CC)cc1` [CBK289684], for which the viability at 28.5 h, 10 µM came to 107%.

Regarding `CCN1C(=O)COC[C@@H]1[C@H](O)c1ccc(NC(=O)COc2ccccc2)cc1` [CBK289685], the viability at 28.5 h, 10 µM amounted to 96.6%.

Consider `CCN1C(=O)COC[C@@H]1[C@H](O)c1ccc(NC(=O)c2ccc(C#N)cc2)cc1` [CBK289689], for which the viability at 28.5 h, 10 µM was found to be 91.6%.

For `O=C(c1cccnc1)N1C[C@@H]2OCC(=O)N(Cc3ccc(F)cc3)[C@@H]2C1` [CBK289691], the viability at 28.5 h, 10 µM came to 96.1%.

As for `CC(C)CN1C(=O)COC[C@@H]1[C@H](O)c1ccc(NC(=O)c2cccnc2)cc1` [CBK289692], the viability at 28.5 h, 10 µM was determined as 105%.

For the compound `CCNC(=O)Nc1ccc([C@@H](O)[C@H]2COCC(=O)N2CC)cc1` [CBK289696], the viability at 28.5 h, 10 µM was determined as 93.5%. As for `O=C(Nc1ccc([C@@H](O)[C@H]2COCC(=O)N2Cc2ccccn2)cc1)c1cccs1` [CBK289700], the viability at 28.5 h, 10 µM is 109%.

Consider `Cn1ccnc1CN1C(=O)CO[C@H]2CN(c3ncccn3)C[C@H]21` [CBK289704], for which the viability at 28.5 h, 10 µM is 98.3%. On to `CCc1cn(CC(C(=O)OC)N(C)C)c(=O)[nH]c1=O` (stereo not drawn) [CBK289706], for which the viability at 28.5 h, 10 µM was determined as 107%. `c1ccc2c(c1)CCN2c1ncnc2[nH]cnc12` [CBK291104]: the viability at 28.5 h, 10 µM is 100%. As for `O=C(Cc1c[nH]c(=O)[nH]c1=O)N1CCCCC1c1nc2cc(F)ccc2[nH]1` (stereo not drawn) [CBK291108], the viability at 28.5 h, 10 µM amounted to 104%.

For `COc1ccc(-c2nc(-c3ccncc3)ncc2C(=O)NC2CCCCC2)cc1` [CBK291111], the viability at 28.5 h, 10 µM turned out to be 95.4%. Take `COc1ccc(-c2nc(-c3ccncc3)ncc2C(=O)NCc2ccncc2)cc1` [CBK291112]: the viability at 28.5 h, 10 µM came out at 96.4%. `COc1ccc(Nc2ncc(C(=O)NCCCN3CCCC3)c3ccccc23)cc1` [CBK291114]: the viability at 28.5 h, 10 µM was 106%. For `Cc1ccc(NC(=O)Cn2c(=O)cc(O)c3ccccc32)cc1` [CBK291116], the viability at 28.5 h, 10 µM was determined as 95.9%.

Turning to `c1ccc2c(c1)CCN2c1ncnc2c1nc1n2CCCCC1` [CBK291119], the viability at 28.5 h, 10 µM was 91.1%. Then `COc1ccc(C(=O)O)cc1N1C(=O)CC(c2c(C)nn(-c3ccccc3)c2N)C1=O` (stereo not drawn) [CBK291120], with 112%. With `Cc1cc(NC(=O)CCC2CCCCC2)nc2c1c(=O)oc1ccccc12` [CBK291125], the viability at 28.5 h, 10 µM is 111%. On to `O=c1[nH]c(N2CCC3(CC2)OCCO3)nc2c(-c3ccccc3Cl)csc12` [CBK291128], for which the viability at 28.5 h, 10 µM is 114%. In the case of `Cc1cc(Cn2nnc(-c3ccc(Br)cc3)n2)cc(C)c1O` [CBK291129], the viability at 28.5 h, 10 µM is 119%. The figure for `Cc1cc(Cn2nnc(-c3cccnc3)n2)cc(C)c1O` [CBK291130] is 113%.

For the compound `Cc1cc(NC(=O)c2ccc(S(=O)(=O)N3CCOCC3)cc2)nc2c1c(=O)oc1ccccc12` [CBK291134], the viability at 28.5 h, 10 µM was 106%. As for `Cc1cc(NC(=O)c2ccc(S(=O)(=O)N(C)C)cc2)nc2c1c(=O)oc1ccccc12` [CBK291135], the viability at 28.5 h, 10 µM amounted to 104%. The figure for `CC(c1ccncc1)N1Cc2cccc(C(=O)O)c2C1=O` (stereo not drawn) [CBK291137] is 97.4%; for `COc1cc(Cn2c(-c3ccc(O)c(OC)c3)nc3ccccc32)ccc1O` [CBK291138] it is 100%; for `Cc1ccc2sc(NC(=O)c3ccc(Cl)s3)nc2c1C` [CBK291144] it is 103%.

Usually viability stands for a read-out of living cells in per cent, often relative to untreated cells.
